One test has as its target T1, Kynureninase (Rattus norvegicus, UniProt P70712).
T1 sequence (P70712 whole entry): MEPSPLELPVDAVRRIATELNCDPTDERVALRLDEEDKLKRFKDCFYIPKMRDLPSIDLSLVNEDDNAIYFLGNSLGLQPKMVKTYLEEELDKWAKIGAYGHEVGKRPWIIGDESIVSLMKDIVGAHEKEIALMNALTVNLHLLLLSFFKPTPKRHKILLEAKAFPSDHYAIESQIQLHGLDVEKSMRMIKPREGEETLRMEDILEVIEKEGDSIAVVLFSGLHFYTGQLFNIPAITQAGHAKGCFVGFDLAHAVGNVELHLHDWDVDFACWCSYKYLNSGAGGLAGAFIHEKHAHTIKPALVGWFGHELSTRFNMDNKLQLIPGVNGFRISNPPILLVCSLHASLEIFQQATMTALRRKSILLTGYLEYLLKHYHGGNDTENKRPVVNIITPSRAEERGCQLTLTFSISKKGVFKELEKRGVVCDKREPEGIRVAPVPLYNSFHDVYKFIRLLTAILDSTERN
The test is described as follows: Tested for inhibitory activity against kynureninase from rat liver.

Test [1] concerns the target Kynurenine 3-monooxygenase (Rattus norvegicus) (UniProt O88867). Conditions: 100 uM.
Description: Tested for inhibitory activity against kynurenine 3-hydroxylase at 100 uM concentration
Test [2] addresses Kynurenine 3-monooxygenase (Rattus norvegicus, UniProt O88867). Description: Tested for inhibitory activity against kynurenine 3-hydroxylase.

Our source for the IC50 and inhibition values is ChEMBL document CHEMBL1149923, “Synthesis and activity of enantiopure (S) (m-nitrobenzoyl) alanine, potent kynurenine-3-hydroxylase inhibitor” (Bioorg Med Chem Lett, 1995).

Usually IC50 stands for the concentration that inhibits the measured activity by half. For orientation: inhibition means the drop in the measured response relative to a control, in per cent. Read a low inhibition as little suppression.

Sequence of Kynurenine 3-monooxygenase (O88867 whole entry): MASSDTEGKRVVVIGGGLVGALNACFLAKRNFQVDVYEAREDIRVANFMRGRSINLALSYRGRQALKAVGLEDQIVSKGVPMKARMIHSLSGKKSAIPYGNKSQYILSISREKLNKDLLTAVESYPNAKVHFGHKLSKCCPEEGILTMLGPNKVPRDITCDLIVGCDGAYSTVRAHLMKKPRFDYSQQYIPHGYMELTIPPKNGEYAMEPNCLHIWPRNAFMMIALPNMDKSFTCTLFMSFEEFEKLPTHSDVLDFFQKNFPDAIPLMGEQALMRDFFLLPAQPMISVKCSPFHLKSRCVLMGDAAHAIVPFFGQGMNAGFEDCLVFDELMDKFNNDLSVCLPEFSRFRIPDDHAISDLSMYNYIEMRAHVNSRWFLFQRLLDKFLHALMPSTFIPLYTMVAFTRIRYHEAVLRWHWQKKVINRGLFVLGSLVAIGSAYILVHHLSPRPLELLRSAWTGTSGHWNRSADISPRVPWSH
Sequence of Kynurenine 3-monooxygenase (Rattus norvegicus) (O88867 whole entry, looked up): as the sequence (O88867 whole entry) above

On Kynureninase, `N[C@H](CC(=O)c1cccc([N+](=O)[O-])c1)C(=O)O` displayed an IC50 of 100 µM. In addition, the inhibition in test [1] stood at 60%.

`N[C@@H](CC(=O)c1cccc([N+](=O)[O-])c1)C(=O)O`: the results for the IC50 (at Kynureninase; in test [2]) were 60 µM and 0.5 µM, respectively.
